The test concerns HCT 116 cells. Put plainly: CellTiter-Glo Luminescent Cell Viability Assay in HCT 116 cells. The class given is cell-based. To be noted: Homo sapiens, HCT-116, 120 h, HCT 116 human colon carcinoma cell viability, 120 h (5 days) incubation, 10 concentrations 30 μM to 0.0015 μM, triplicate. The source says:
CellTiter-Glo™ Assay in HCT 116 Cells
The CellTiter-Glo™ Luminescent Cell Viability Assay (Promega) is a homogeneous method of determining the number of viable cells in culture based on quantitation of the ATP present, which signals the presence of metabolically active cells.
HCT 116 cells (human colon carcinoma, ATCC-No. CCl1-247) were cultivated in RPMI 1640 medium with GlutaMAX™ I (Invitrogen, Cat-No. 61870-010), 2.5% Fetal Calf Serum (FCS, Sigma Cat-No. F4135 (FBS)); 100 Units/ml penicillin/100 μg/ml streptomycin (=Pen/Strep from Invitrogen Cat. No. 15140). For the assay the cells were seeded in 384 well plates, 1000 cells per well, in the same medium. The next day the test compounds were added in various concentrations ranging from 30 μM to 0.0015 μM (10 concentrations, 1:3 diluted). After 5 days the CellTiter-Glo™ assay was done according to the instructions of the manufacturer (CellTiter-Glo™ Luminescent Cell Viability Assay, from Promega). In brief: the cell-plate was equilibrated to room temperature for approximately 30 minutes and than the CellTiter-Glo™ reagent was added. The contents were carefully mixed for 15 minutes to induce cell lysis. After 45 minutes the luminescent signal was measured in Victor 2, (scanning multiwell spectrophotometer, Wallac).
Medium: RPMI 1640 with GlutaMAX™ I (Invitrogen, Cat-Nr. 61870), 5% FCS (Sigma Cat.-No. F4135), Pen/Strep (Invitrogen, Cat No. 15140).
HCT116 (ATCC-No. CCl-247): 1000 cells in 60 μl per well of 384 well plate (Greiner 781098, μClear-plate white)
After seeding incubate plates 24 h at 37° C., 5% CO2
2nd. Day: Induction (Treatment with Compounds, 10 Concentrations):
In order to achieve a final concentration of 30 μM as highest concentration 3,5 μl of 10 mM compound stock solution were added directly to 163 μl media. Then step e) of the dilution procedure described below, was followed.
In order to achieve the second highest to the lowest concentrations, a serial dilution with dilution steps of 1:3 was followed according to the procedure (a–e) as described here below: • a) for the second highest concentration add 10 μl of 10 mM stock solution of compound to 20 μl dimethylsulfoxide (DMSO) • b) dilute 8×1:3 (always 10 μl to 20 μl DMSO) in this DMSO dilution row (results in 9 wells with concentrations from 3333.3 μM to 0.51 μM) • c) dilute each concentration 1: 47.6 (3.5 μl compound dilution to 163 μl media) • e) add 10 μl of every concentration to 60 μl media in the cell plate resulting in final concentration of DMSO : 0.3% in every well and resulting in 10 final concentration of compounds ranging from 30 μM to 0.0015 μM. • Each compound is tested in triplicate. • Incubate 120 h (5 days) at 37° C., 5% CO2
Analysis: • Add 30 μl CellTiter-Glo™ Reagent per well, • shake 15 minutes at room temperature • incubate further 45 minutes at room temperature without shaking
Measurement: • Victor 2 scanning multiwell spectrophotometer (Wallac), Luminescence mode (0.5 sec/read, 477 nm) • Determine IC50 using a non-linear curve fit (XLfit software (ID Business Solution Ltd., Guilford, Surrey, UK))
A general note: In ATP-based viability assays light output follows the ATP content of the culture.

Structures can show the parent of a compound that is named as a salt.

By IC50 is commonly meant the concentration that inhibits the measured activity by half. Read a high IC50 as lower potency. Molecule `O=C(NS(=O)(=O)/C=C/c1csc2ccccc12)c1ccc(F)cc1Cl` [Example 2-26, (E)-2-Benzo[b]thiophen-3-yl-ethenesulfonic acid 2-chloro-4-fluoro-benzoylamide; sodium salt] returned an IC50 of 0.5 to 15 µM.

The molecule `O=C(NS(=O)(=O)/C=C/c1cccnc1Cl)c1ccc(Cl)cc1Cl` [Example 2-21, (E)-2-(2-Chloro-pyridin-3-yl)-ethenesulfonic acid 2,4-dichloro-benzoylamide; sodium salt] yielded an IC50 of 0.5 to 15 µM. Under `COc1ccc(/C=C/S(=O)(=O)NC(=O)c2ccc(Cl)cc2Cl)cn1` [Example 2-4, (E)-2-(6-Methoxy-pyridin-3-yl)-ethenesulfonic acid 2,4-dichloro-benzoylamide; sodium salt] stands 5.02 µM; under `Cc1cc(Cl)ccc1C(=O)NS(=O)(=O)/C=C/c1ccsc1` [Example 3-2, (E)-2-Thiophen-3-yl-ethenesulfonic acid 4-chloro-2-methyl-benzoylamide; sodium salt], 0.5 to 15 µM; under `Cc1noc(C)c1/C=C/S(=O)(=O)NC(=O)c1ccc(Cl)cc1Cl` [Example 1-11, (E)-2-(3,5-Dimethyl-isoxazol-4-yl)-ethenesulfonic acid 2,4-dichloro-benzoylamide; sodium salt], 0.5 to 15 µM. Under `Cc1ccsc1/C=C/S(=O)(=O)NC(=O)c1ccc(Cl)cc1Cl` [Example 1-9, (E)-2-(3-Methyl-thiophen-2-yl)-ethenesulfonic acid 2,4-dichloro-benzoylamide] stands 0.5 to 15 µM; under `COc1cc(Cl)ccc1C(=O)NS(=O)(=O)/C=C/c1cccnc1` [Example 4-1, (E)-2-Pyridin-3-yl-ethenesulfonic acid 4-chloro-2-methoxy-benzoylamide; sodium salt], 0.5 to 15 µM; under `Cc1cccc(/C=C/S(=O)(=O)NC(=O)c2ccc(F)cc2Cl)n1` [Example 2-25, (E)-2-(6-Methyl-pyridin-2-yl)-ethenesulfonic acid 2-chloro-4-fluoro-benzoylamide; sodium salt], 0.5 to 15 µM. Molecule `O=C(NS(=O)(=O)/C=C/c1ccsc1)c1ccc(Br)cc1Cl` [Example 3-11, (E)-2-Thiophen-3-yl-ethenesulfonic acid 4-bromo-2-chloro-benzoylamide; sodium salt] yielded a concentration for half-maximal inhibition (IC50) of 0.5 to 15 µM. On to `Cc1cc(Cl)ccc1C(=O)NS(=O)(=O)/C=C/c1cccnc1` [Example 4-8, (E)-2-Pyridin-3-yl-ethenesulfonic acid 4-chloro-2-methyl-benzoylamide; sodium salt], for which the half-maximal inhibitory concentration (IC50) was 0.5 to 15 µM.

`Cc1ccc(C(=O)NS(=O)(=O)/C=C/c2ccsc2)c(C)c1` [Example 3-14, (E)-2-Thiophen-3-yl-ethenesulfonic acid 2,4-dimethyl-benzoylamide; sodium salt] showed an IC50 of 0.5 to 15 µM. The result for `O=C(NS(=O)(=O)/C=C/c1csc2ccccc12)c1ccc(F)cc1Br` [Example 4-19, (E)-2-Benzo[b]thiophen-3-yl-ethenesulfonic acid 2-bromo-4-fluoro-benzoylamide; sodium salt] reads 0.5 to 15 µM; that for `O=C(NS(=O)(=O)/C=C/c1csc2ccccc12)c1ccc(C(F)(F)F)cc1C(F)(F)F` [Example 2-29, (E)-2-Benzo[b]thiophen-3-yl-ethenesulfonic acid 2,4-ditrifluoromethyl-benzoylamide; sodium salt], 0.5 to 15 µM; that for `Cc1cc(Cl)ccc1C(=O)NS(=O)(=O)/C=C/c1csc2ccccc12` [Example 4-18, (E)-2-Benzo[b]thiophen-3-yl-ethenesulfonic acid 4-chloro-2-methyl-benzoylamide; sodium salt], 0.5 to 15 µM.

As for `COc1cc(Cl)ccc1C(=O)NS(=O)(=O)/C=C/c1cccs1` [Example 3-1, (E)-2-Thiophen-2-yl-ethenesulfonic acid 4-chloro-2-methoxy-benzoylamide; sodium salt], the IC50 was 0.5 to 15 µM. Take `O=C(NS(=O)(=O)/C=C/c1ccsc1)c1ccc(F)cc1Cl` [Example 1-3, (E)-2-Thiophen-3-yl-ethenesulfonic acid 2-chloro-4-fluoro-benzoylamide; sodium salt]: the concentration for half-maximal inhibition (IC50) lay within 0.5 to 15 µM. Molecule `Cc1ccc(C(=O)NS(=O)(=O)/C=C/c2ccsc2)c(Br)c1` [Example 3-7, (E)-2-Thiophen-3-yl-ethenesulfonic acid 2-bromo-4-methyl-benzoylamide; sodium salt] had an IC50 of 0.5 to 15 µM. The result for `O=C(NS(=O)(=O)/C=C/c1ccsc1)c1ccc(F)cc1Br` [Example 3-9, (E)-2-Thiophen-3-yl-ethenesulfonic acid 2-bromo-4-fluoro-benzoylamide; sodium salt] reads 0.5 to 15 µM; that for `O=C(NS(=O)(=O)/C=C/c1ccccn1)c1ccc(F)cc1C(F)(F)F` [Example 2-7, (E)-2-Pyridin-2-yl-ethenesulfonic acid 4-fluoro-2-trifluoromethyl-benzoylamide; sodium salt], 0.5 to 15 µM; that for `O=C(NS(=O)(=O)/C=C/c1ccccn1)c1ccc(F)cc1Br` [Example 4-6, (E)-2-Pyridin-2-yl-ethenesulfonic acid 2-bromo-4-fluoro-benzoylamide; sodium salt], 0.5 to 15 µM. Turning to `Cc1ccc(C(=O)NS(=O)(=O)/C=C/c2cccnc2)c(C)c1` [Example 4-16, (E)-2-Pyridin-3-yl-ethenesulfonic acid 2,4-dimethyl-benzoylamide; sodium salt], the 50% inhibitory concentration (IC50) is 0.5 to 15 µM. The result for `O=C(NS(=O)(=O)/C=C/c1ccccn1)c1ccc(Br)cc1Cl` [Example 4-7, (E)-2-Pyridin-2-yl-ethenesulfonic acid 4-bromo-2-chloro-benzoylamide; sodium salt] reads 0.5 to 15 µM. The result for `O=C(NS(=O)(=O)/C=C/c1cccnc1)c1ccc(Br)cc1Cl` [Example 4-11, (E)-2-Pyridin-3-yl-ethenesulfonic acid 4-bromo-2-chloro-benzoylamide; sodium salt] reads 0.5 to 15 µM; that for `COc1cc(Cl)ccc1C(=O)NS(=O)(=O)/C=C/c1ccsc1` [Example 3-4, (E)-2-Thiophen-3-yl-ethenesulfonic acid 4-chloro-2-methoxy-benzoylamide; sodium salt], 0.5 to 15 µM. Take `O=C(NS(=O)(=O)/C=C/c1cccnc1)c1ccc(F)cc1C(F)(F)F` [Example 2-9, (E)-2-Pyridin-3-yl-ethenesulfonic acid 4-fluoro-2-trifluoromethyl-benzoylamide; sodium salt]: the half-inhibitory concentration (IC50) lay within 0.5 to 15 µM. The result for `O=C(NS(=O)(=O)/C=C/c1ccsc1)c1ccc(C(F)(F)F)cc1C(F)(F)F` [Example 1-6, (E)-2-Thiophen-3-yl-ethenesulfonic acid 2,4-bis-trifluoromethyl-benzoylamide; sodium salt] reads 0.5 to 15 µM; that for `O=C(NS(=O)(=O)/C=C/c1nccs1)c1ccc(Cl)cc1Cl` [Example 2-22, (E)-2-Thiazol-2-yl-ethenesulfonic acid 2,4-dichloro-benzoylamide; sodium salt], 0.5 to 15 µM.

Molecule `Cc1cc(Br)ccc1C(=O)NS(=O)(=O)/C=C/c1ccsc1` [Example 3-5, (E)-2-Thiophen-3-yl-ethenesulfonic acid 4-bromo-2-methyl-benzoylamide; sodium salt] yielded an IC50 of 0.5 to 15 µM.

In turn, `COc1ccc(/C=C/S(=O)(=O)NC(=O)c2ccc(Cl)cc2C)cn1` [Example 4-12, (E)-2-(6-Methoxy-pyridin-3-yl)-ethenesulfonic acid 4-chloro-2-methyl-benzoylamide; sodium salt] registered a 50% inhibitory concentration (IC50) of 0.5 to 15 µM. Under `Cc1cccc(/C=C/S(=O)(=O)NC(=O)c2ccc(F)cc2Br)n1` [Example 4-15, (E)-2-(6-Methyl-pyridin-2-yl)-ethenesulfonic acid 2-bromo-4-fluoro-benzoylamide; sodium salt] stands 0.5 to 15 µM.
